# Assays:
# MV4-11 = experiment: Antiproliferative activity against human MV4-11 cells incubated for 5 days by CellTiter-Glo luminescent cell viability assay; format: functional, cell-based; conditions: MV4-11, 120 h
# CDK8/Cyclin C = CDK8/Cyclin C (Homo sapiens, UniProt P49336); experiment: Displacement of tracer 236 from CDK8/cyclin C (unknown origin) preincubated for 15 mins followed by tracer addition and measured after 60 mins by FRET based lanthascreen assay; format: protein-complex assay
# Chain of CDK8/Cyclin C (P49336 whole entry): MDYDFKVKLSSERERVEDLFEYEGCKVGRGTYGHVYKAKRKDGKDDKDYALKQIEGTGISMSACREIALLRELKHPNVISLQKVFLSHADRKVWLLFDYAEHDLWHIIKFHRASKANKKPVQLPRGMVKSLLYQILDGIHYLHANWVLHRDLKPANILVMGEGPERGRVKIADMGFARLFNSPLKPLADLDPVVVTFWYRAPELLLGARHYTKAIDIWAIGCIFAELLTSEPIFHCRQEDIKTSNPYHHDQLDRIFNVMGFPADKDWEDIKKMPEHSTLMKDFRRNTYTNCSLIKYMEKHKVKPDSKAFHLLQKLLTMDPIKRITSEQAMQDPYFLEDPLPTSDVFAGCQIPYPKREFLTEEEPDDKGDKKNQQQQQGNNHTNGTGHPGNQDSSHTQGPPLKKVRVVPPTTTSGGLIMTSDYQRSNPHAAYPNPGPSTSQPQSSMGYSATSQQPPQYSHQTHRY
# Chain of CDK8/Cyclin C (P24863 whole entry, further chain): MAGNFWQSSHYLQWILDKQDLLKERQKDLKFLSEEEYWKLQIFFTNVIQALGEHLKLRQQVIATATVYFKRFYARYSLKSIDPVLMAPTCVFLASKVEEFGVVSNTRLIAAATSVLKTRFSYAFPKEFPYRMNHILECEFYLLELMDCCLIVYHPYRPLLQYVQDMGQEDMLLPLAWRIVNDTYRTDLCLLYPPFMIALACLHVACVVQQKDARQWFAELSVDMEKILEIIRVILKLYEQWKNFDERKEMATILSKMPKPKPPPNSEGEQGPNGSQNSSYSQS
smiles,measurement,setting,value
C=Cc1c(Br)c(Br)cc2c1nc(N1CCNCC1)n2C1CCOCC1,IC50,MV4-11,0.36 µM
same,IC50,CDK8/Cyclin C,0.0336 µM
Cc1c(Br)c(Br)cc2c1nc(N1CCNCC1)n2C1CCOCC1,IC50,MV4-11,0.0394 µM
same,IC50,CDK8/Cyclin C,0.0079 µM
OCCN1CCN(c2nc3c(C(F)F)c(Br)c(Br)cc3n2C2CCOCC2)CC1,IC50,MV4-11,0.0327 µM
same,IC50,CDK8/Cyclin C,0.0065 µM
Cc1c(Br)c(Br)c(C)c2c1nc(N1CCNCC1)n2C1CCCC1,IC50,MV4-11,> 1 µM
same,IC50,CDK8/Cyclin C,0.139 µM
C#Cc1c(Br)c(Br)cc2c1nc(N1CCNCC1)n2C1CCOCC1,IC50,MV4-11,0.0725 µM
same,IC50,CDK8/Cyclin C,0.0108 µM
Clc1c(Br)c(Br)cc2c1nc(N1CCNCC1)n2C1CCOCC1,IC50,MV4-11,> 1 µM
same,IC50,CDK8/Cyclin C,0.091 µM
NC1CCN(c2nc3c(C(F)F)c(Br)c(Br)cc3n2C2CCOCC2)CC1,IC50,MV4-11,0.188 µM
same,IC50,CDK8/Cyclin C,0.035 µM
N[C@@H]1CCN(c2nc3c(C(F)F)c(Br)c(Br)cc3n2C2CCOCC2)C1,IC50,MV4-11,0.0338 µM
same,IC50,CDK8/Cyclin C,0.02 µM
Cc1c(Br)c(Br)cc2c1nc(N1CCNCC1)n2[C@H]1CC[C@H](O)CC1,IC50,MV4-11,0.146 µM
same,IC50,CDK8/Cyclin C,0.0112 µM
CN1CCN(c2nc3c(C(F)F)c(Br)c(Br)cc3n2C2CCOCC2)CC1,IC50,MV4-11,0.152 µM
same,IC50,CDK8/Cyclin C,0.0064 µM
Cc1c(Br)c(Br)cc2c1nc(N1CCNCC1)n2C1CCCOC1 (stereo not given),IC50,MV4-11,0.478 µM
same,IC50,CDK8/Cyclin C,0.0167 µM
Brc1cc2nc(N3CCNCC3)n(C3CCOCC3)c2cc1Br,IC50,MV4-11,0.526 µM
same,IC50,CDK8/Cyclin C,0.166 µM
Cc1c(Br)c(Br)cc2c1nc(N1CCNCC1)n2C1CCCC1,IC50,MV4-11,0.421 µM
same,IC50,CDK8/Cyclin C,0.0363 µM
Cc1c(Br)c(Br)cc2c1nc(N1CCNCC1)n2C1CC2(COC2)C1,IC50,MV4-11,0.795 µM
same,IC50,CDK8/Cyclin C,> 1 µM
Brc1cc2c(nc(N3CCNCC3)n2C2CCOCC2)c(C2CC2)c1Br,IC50,MV4-11,> 1 µM
same,IC50,CDK8/Cyclin C,0.0486 µM

# Reference: ChEMBL document CHEMBL5506027, “Discovery of a Novel and Potent Cyclin-Dependent Kinase 8/19 (CDK8/19) Inhibitor for the Treatment of Cancer” (J Med Chem, 2024)
